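Each compound was tested at five concentrations against cells in 96-well plates for 48 hours. The concentration for 50% growth inhibition is given as GI50.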 Calls of active or inactive are those of the source. Rule as the data show it: active = GI50 up to about 1.1 µM and inactive = higher.

Some test systems named below: 786-0; ACHN; BT-549; CCRF-CEM; HCC 2998; KM12; M14; MDA-N; NCI-H23; NCI/ADR-RES; OVCAR-5; SF-295; SK-MEL-2; SK-MEL-5; SN12C; SNB-19; SNB-75; TK-10; U-251; UACC-62.
Holding throughout (experiment): NCI-60 cell line screen, 48 h

Consider `Cc1cc(-c2nc3cc(F)c(F)cc3s2)ccc1N`, for which the GI50 in the assay on 786-0 is > 65.2 µM (inactive); in the assay on ACHN, > 79.1 µM (inactive); with BT-549, > 100 µM (inactive); in the assay on CCRF-CEM, > 35.6 µM (inactive); with HCC 2998, > 42.4 µM (inactive); in the assay on KM12, > 69.2 µM (inactive). The GI50 with M14 is > 55.2 µM (inactive); in the assay on MDA-N it was > 56.6 µM (inactive); in the assay with NCI-H23, > 70.6 µM (inactive); in the assay with NCI/ADR-RES, > 59.3 µM (inactive); with OVCAR-5, > 53.8 µM (inactive); in the assay on SF-295, > 48.2 µM (inactive). Moreover, the GI50 in the assay on SK-MEL-2 was > 58.5 µM (inactive); in the assay with SK-MEL-5, 64 µM (inactive); in the assay with SN12C, > 74.6 µM (inactive); in the assay with SNB-19 it was > 59.2 µM (inactive); with SNB-75, 51.9 µM (inactive); in the assay on TK-10, 0.0312 µM (active). The GI50 with U-251 is > 45.4 µM (inactive); in the assay with UACC-62, > 100 µM (inactive).

With `OCCCCCNc1c2ccccc2nc2ccccc12`, the GI50 in the assay with 786-0 is 2.34 µM (inactive); in the assay on ACHN, 0.818 µM (active); in the assay with BT-549 it was 6.17 µM (inactive); in the assay on CCRF-CEM, 2.5 µM (inactive); with HCC 2998 it was 1.01 µM (active); in the assay with KM12, 3.13 µM (inactive). Further, the GI50 in the assay with M14 is 2.74 µM (inactive); in the assay with MDA-N, 2.54 µM (inactive); in the assay with NCI-H23, 2.02 µM (inactive); in the assay with NCI/ADR-RES, 7.46 µM (inactive); in the assay on OVCAR-5, 2.51 µM (inactive); in the assay on SF-295 it was 2.75 µM (inactive). In addition, the GI50 with SK-MEL-2 is 2.62 µM (inactive); in the assay on SK-MEL-5 it was 1.71 µM (inactive); in the assay with SN12C it was 2.54 µM (inactive); with SNB-19, 3.03 µM (inactive); with SNB-75, 5.52 µM (inactive); with TK-10, 3.6 µM (inactive). For the same compound, the GI50 is 3.73 µM (inactive) in the assay with U-251 and 1.8 µM (inactive) in the assay on UACC-62.

For the compound `O=C1/C(=C\c2cccc(Oc3ccccc3)c2)S(=O)(=O)C(c2ccccc2)N1c1ccc(Cl)cc1` (stereo not given), the GI50 in the assay with 786-0 was 14 µM (inactive); with ACHN, 12.9 µM (inactive); with BT-549, 22.6 µM (inactive); with CCRF-CEM, 12.3 µM (inactive); in the assay with HCC 2998, 56.1 µM (inactive); with KM12, 24 µM (inactive). Moreover, the GI50 is 14 µM (inactive) with M14; 14.6 µM (inactive) in the assay with MDA-N; 24.9 µM (inactive) in the assay on NCI-H23; 17.3 µM (inactive) in the assay with NCI/ADR-RES; 11.7 µM (inactive) with OVCAR-5; 5.28 µM (inactive) in the assay with SF-295. The GI50 in the assay on SK-MEL-2 was 8.36 µM (inactive); in the assay with SK-MEL-5, 13.6 µM (inactive); with SN12C it was 15.6 µM (inactive); in the assay on SNB-19, 25.1 µM (inactive); in the assay on SNB-75, 30.4 µM (inactive); in the assay with TK-10, 92.3 µM (inactive). The GI50 was 16 µM (inactive) in the assay on U-251 and 7.82 µM (inactive) in the assay with UACC-62.

Consider `Nc1ccc(Oc2ccc(C3(c4ccc(Oc5ccc(N)cc5)cc4)C4CC5C6CC7CC5C3C(C7)C6C4)cc2)cc1`, for which the GI50 in the assay on 786-0 is 9.66 µM (inactive); in the assay on ACHN, 48.5 µM (inactive); in the assay on BT-549 it was > 100 µM (inactive); in the assay on CCRF-CEM, 2.62 µM (inactive); in the assay with HCC 2998, 1.07 µM (active); in the assay with KM12, 10.5 µM (inactive). In addition, the GI50 is 3.87 µM (inactive) in the assay on M14; 14.5 µM (inactive) with MDA-N; 26.3 µM (inactive) with NCI-H23; > 100 µM (inactive) in the assay with NCI/ADR-RES; > 100 µM (inactive) in the assay with OVCAR-5; 54.8 µM (inactive) in the assay with SF-295. Further, the GI50 is > 100 µM (inactive) in the assay on SK-MEL-2; 52.6 µM (inactive) in the assay on SK-MEL-5; 12.1 µM (inactive) with SN12C; 37.4 µM (inactive) with SNB-19; > 100 µM (inactive) in the assay on SNB-75; > 78 µM (inactive) in the assay on TK-10. For the same compound, the GI50 is 1.03 µM (active) in the assay with U-251 and 38.4 µM (inactive) in the assay with UACC-62.

As for `CC(=O)NC1COC(COC(=O)CCCCCCCCCCNC(=O)c2ccc([N+](=O)[O-])c3c(=O)c4ccccc4[nH]c23)C(O)C1OC(C)C(=O)NC(C(=O)NC(CCC(N)=O)C(=O)OCc1ccccc1)C(C)C` (stereo not given), the GI50 in the assay on 786-0 is 15 µM (inactive); in the assay with ACHN, 14.8 µM (inactive); with BT-549, 48.8 µM (inactive); in the assay with CCRF-CEM, 20.8 µM (inactive); in the assay with HCC 2998, 5.96 µM (inactive); with KM12 it was 4.85 µM (inactive). Also, the GI50 with M14 is 35 µM (inactive); in the assay on MDA-N it was 0.966 µM (active); in the assay on NCI-H23, 11.4 µM (inactive); in the assay with NCI/ADR-RES, 32.9 µM (inactive); in the assay with OVCAR-5 it was 36 µM (inactive); in the assay on SF-295, 22 µM (inactive). The GI50 is 11 µM (inactive) with SK-MEL-2; 29.6 µM (inactive) in the assay with SK-MEL-5; 32.6 µM (inactive) in the assay with SN12C; 6.03 µM (inactive) in the assay on SNB-19; 14.4 µM (inactive) with SNB-75; 18.5 µM (inactive) with TK-10. Also, the results for the GI50 with U-251 and in the assay with UACC-62 were 11.5 µM (inactive) and 25.2 µM (inactive), respectively.

Turning to `COc1cc(C2c3cc4c(cc3OC(NNc3ccccc3)C2C)OCO4)cc(OC)c1O` (stereo not given), the GI50 was 3.18 µM (inactive) in the assay with 786-0; 0.159 µM (active) with ACHN; 11.4 µM (inactive) with BT-549; 0.463 µM (active) in the assay with CCRF-CEM; 0.331 µM (active) in the assay on HCC 2998; 0.251 µM (active) with KM12. Besides, the GI50 was 0.255 µM (active) in the assay with M14; 0.294 µM (active) with MDA-N; 5.6 µM (inactive) in the assay on NCI-H23; 1.07 µM (active) in the assay on NCI/ADR-RES; 3.21 µM (inactive) in the assay with OVCAR-5; 0.813 µM (active) in the assay with SF-295. In addition, the GI50 was 0.724 µM (active) with SK-MEL-2; 1.3 µM (inactive) in the assay on SK-MEL-5; 0.54 µM (active) with SN12C; 6.64 µM (inactive) in the assay with SNB-19; 2.33 µM (inactive) in the assay with SNB-75; 4.63 µM (inactive) in the assay with TK-10. The GI50 in the assay on U-251 is 2.55 µM (inactive); in the assay on UACC-62, 0.132 µM (active).

On to `O=S1(=O)N=C(SCc2ccccc2)N(c2ccccc2)c2ccncc21`, for which the GI50 with 786-0 was 40.8 µM (inactive); in the assay on ACHN, 57.7 µM (inactive); with BT-549, 25.5 µM (inactive); in the assay with CCRF-CEM it was 28.5 µM (inactive); in the assay with HCC 2998, 38.7 µM (inactive); with KM12, 41 µM (inactive). Further, the GI50 with M14 was 36.3 µM (inactive); in the assay on MDA-N, 27.4 µM (inactive); in the assay on NCI-H23 it was 29.6 µM (inactive); with NCI/ADR-RES, 21.7 µM (inactive); in the assay with OVCAR-5, > 100 µM (inactive); in the assay with SF-295 it was 34 µM (inactive). Besides, the GI50 is 34.3 µM (inactive) in the assay with SK-MEL-2; 28.4 µM (inactive) with SK-MEL-5; 42.2 µM (inactive) in the assay on SN12C; 99.8 µM (inactive) in the assay on SNB-19; 24.7 µM (inactive) with SNB-75; 35.7 µM (inactive) in the assay on TK-10. Also, the GI50 in the assay with U-251 was 39.2 µM (inactive); with UACC-62, 44.4 µM (inactive).

Consider `CN(C)CCCN1c2ccccc2CCc2cccc([N+](=O)[O-])c21`, for which the GI50 in the assay on 786-0 was 15.3 µM (inactive); in the assay with ACHN it was 22.5 µM (inactive); with BT-549, 25.9 µM (inactive); in the assay on CCRF-CEM, 5.38 µM (inactive); with HCC 2998, 17.7 µM (inactive); in the assay with KM12, 17.1 µM (inactive). Besides, the GI50 in the assay on M14 is 15.7 µM (inactive); with MDA-N it was 16.2 µM (inactive); in the assay with NCI-H23, 34.4 µM (inactive); in the assay on NCI/ADR-RES, 16.5 µM (inactive); with OVCAR-5 it was 28.8 µM (inactive); in the assay on SF-295 it was 16.5 µM (inactive). In addition, the GI50 is 26.5 µM (inactive) with SK-MEL-2; 16.4 µM (inactive) in the assay with SK-MEL-5; 21.3 µM (inactive) in the assay with SN12C; 47.2 µM (inactive) in the assay on SNB-19; 6.34 µM (inactive) with SNB-75; 21.5 µM (inactive) in the assay with TK-10. Further, the GI50 in the assay on U-251 is 18.2 µM (inactive); in the assay with UACC-62, 18.5 µM (inactive).

Regarding `CC(C)=CCC[C@@H](C)C1=C(O)C(=O)C(C)=C(Nc2ccccc2F)C1=O`, the GI50 was 21.3 µM (inactive) with 786-0; 13.8 µM (inactive) in the assay with ACHN; 17.5 µM (inactive) in the assay on BT-549; 2.39 µM (inactive) with CCRF-CEM; 48.1 µM (inactive) with HCC 2998; 15.5 µM (inactive) with KM12. In addition, the GI50 with M14 is 16.7 µM (inactive); with MDA-N, 23.1 µM (inactive); in the assay with NCI-H23, 12.7 µM (inactive); in the assay on NCI/ADR-RES it was 3.49 µM (inactive); in the assay on OVCAR-5, 60.4 µM (inactive); with SF-295, 3.82 µM (inactive). Moreover, the GI50 with SK-MEL-2 was 18.7 µM (inactive); in the assay with SK-MEL-5 it was 12.5 µM (inactive); in the assay on SN12C, 15 µM (inactive); in the assay on SNB-19 it was 15.2 µM (inactive); in the assay on SNB-75, 22.1 µM (inactive); with TK-10, 29.9 µM (inactive). The GI50 with U-251 was 9.33 µM (inactive); in the assay with UACC-62 it was 12.1 µM (inactive).

`CC(=O)Nc1c2sscc-2n(C)c1=O` [THIOLUTIN]: the GI50 in the assay on 786-0 was 1.52 µM (inactive); in the assay with ACHN, 0.984 µM (active); in the assay with BT-549, 1.43 µM (inactive); with CCRF-CEM it was 0.282 µM (active); in the assay on HCC 2998, 0.587 µM (active); in the assay with KM12, 1.32 µM (inactive). For the same compound, the GI50 is 0.314 µM (active) with M14; 1.56 µM (inactive) in the assay on MDA-N; 0.853 µM (active) in the assay with NCI-H23; 1.16 µM (inactive) in the assay on NCI/ADR-RES; 1.6 µM (inactive) with OVCAR-5; 1.35 µM (inactive) with SF-295. In addition, the GI50 with SK-MEL-2 was 1.88 µM (inactive); with SK-MEL-5, 1.33 µM (inactive); in the assay with SN12C it was 1.87 µM (inactive); in the assay on SNB-19 it was 1.96 µM (inactive); with SNB-75 it was 1.67 µM (inactive); in the assay on TK-10, 2.15 µM (inactive). Moreover, the results for the GI50 in the assay with U-251 and with UACC-62 were 1.12 µM (active) and 0.443 µM (active), respectively.
